Test system: 323965-272-R-J2-PDC complex spheroid viability
Test: Anticancer human tumor 323965-272-R-J2-PDC patient-derived pancreatic carcinoma cell line growth inhibition [CLK]
Details: for IC50: curve of first compound; for viability, T/C: stronger effect = lower value; active = viability on the fitted dose curve at most 10% of control; inactive = the rest
Outline: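 Patient-derived tumor cells grown as complex spheroids with HUVEC endothelial cells and mesenchymal stem cells, treated with drug combinations. Concentrations descend in half-log steps from near clinical Cmax, or from 10 microM if Cmax unknown.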
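Note: spheroids exposed to agents for seven days before readout.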
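Throughout, for viability, T/C: percent of DMSO vehicle control wells so 100% = untreated growth.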

COc1cccc2c1C(=O)c1c(O)c3c(c(O)c1C2=O)CC(O)(C(=O)CO)CC3OC1CC(N)C(O)C(C)O1 (configuration not stated) + CN1CCN(c2cc(C(=O)Nc3cc4cc(-c5cnn(C)c5)ccc4cn3)ccn2)CC1
inactive: viability, T/C (second compound 0.0316 µM, first compound 0.0316 µM) 67.8% | viability, T/C (second compound 0.0316 µM, first compound 0.1 µM) 40.7% | viability, T/C (second compound 0.0316 µM, first compound 0.316 µM) 39.4% | viability, T/C (second compound 0.0316 µM, first compound 1 µM) 34.8% | viability, T/C (second compound 0.0316 µM, first compound 3.16 µM) 25.3% | viability, T/C (second compound 0.1 µM, first compound 0.0316 µM) 54.4% | viability, T/C (second compound 0.1 µM, first compound 0.1 µM) 31.6% | viability, T/C (second compound 0.1 µM, first compound 0.316 µM) 29.3% | viability, T/C (second compound 0.1 µM, first compound 1 µM) 28.2% | viability, T/C (second compound 0.1 µM, first compound 3.16 µM) 19.1% | viability, T/C (second compound 0.316 µM, first compound 0.0316 µM) 20.3% | viability, T/C (second compound 0.316 µM, first compound 0.1 µM) 19.8% | viability, T/C (second compound 0.316 µM, first compound 0.316 µM) 16.1% | viability, T/C (second compound 0.316 µM, first compound 1 µM) 13.1%
active: viability, T/C (second compound 0.0316 µM, first compound 10 µM) 1.54% | viability, T/C (second compound 0.1 µM, first compound 10 µM) 1.41% | viability, T/C (second compound 0.316 µM, first compound 3.16 µM) 5.8% | viability, T/C (second compound 0.316 µM, first compound 10 µM) 0.68% | viability, T/C (second compound 1 µM, first compound 0.0316 µM) 2.27% | viability, T/C (second compound 1 µM, first compound 0.1 µM) 3.05% | viability, T/C (second compound 1 µM, first compound 0.316 µM) 2.16% | viability, T/C (second compound 1 µM, first compound 1 µM) 1.22% | viability, T/C (second compound 1 µM, first compound 3.16 µM) 1.2% | viability, T/C (second compound 1 µM, first compound 10 µM) 0.38% | viability, T/C (second compound 3.16 µM, first compound 0.0316 µM) 4.1% | viability, T/C (second compound 3.16 µM, first compound 0.1 µM) 4.05% | viability, T/C (second compound 3.16 µM, first compound 0.316 µM) 2.98% | viability, T/C (second compound 3.16 µM, first compound 1 µM) 1.5% | viability, T/C (second compound 3.16 µM, first compound 3.16 µM) 1.35% | viability, T/C (second compound 3.16 µM, first compound 10 µM) 0.43% | viability, T/C (second compound 10 µM, first compound 0.0316 µM) 4.15% | viability, T/C (second compound 10 µM, first compound 0.1 µM) 4.78% | viability, T/C (second compound 10 µM, first compound 0.316 µM) 4.17% | viability, T/C (second compound 10 µM, first compound 1 µM) 1.38% | viability, T/C (second compound 10 µM, first compound 3.16 µM) 1.47% | viability, T/C (second compound 10 µM, first compound 10 µM) 0.19%
< 31.6 nM: IC50 (second compound 0.1 µM) | IC50 (second compound 0.316 µM) | IC50 (second compound 1 µM) | IC50 (second compound 3.16 µM) | IC50 (second compound 10 µM)
117 nM: IC50 (second compound 0.0316 µM)

Reference: PubChem BioAssay AID2060619 (Molecular Pharmacology Branch, DTP, NCI, 2025)
